Reference: paper PMC10465125 (eLife, 2023)
Read-outs that look alike come from different tables or passages of the source.

Tests used:
[1] = Cytotoxicity assay (MTT), 293T-ACE2; format: cell-based; conditions: human, tested concentrations given in μg/ml, read-out: CC50 (median cytotoxic concentration)
Procedure: (§1) The human embryonic kidney cells 293T stably expressing recombinant human ACE2 (293T-ACE2) were maintained in DMEM containing 10% FBS, 1% P/S, and […] hygromycin. The NCI-H460 cell line (human non-small cell lung cancer cells) was preserved in Modified Eagle’s Medium (MEM, Gibco, USA) supplemented with 10% FBS and 1% P/S. The VeroE6 cell line (African green monkey kidney cells) was grown in Dulbecco’s Modified Eagle’s Medium (DMEM, Gibco) supplemented with 10% fetal bovine serum (FBS, Gibco), 1× GlutaMAX (Gibco), and 1% penicillin/streptomycin (P/S, Hyclone, USA). All these cells were cultured at 37°C and 5% CO2. All cell lines are checked annually for mycoplasma contamination, and human cell lines were authenticated through STR profiling.
(§2) […]. The medium was removed, and viable cells were detected with MTT assay (Cyrusbioscience, Taiwan), which was read by absorbance at 570 nm by an ELISA reader. All experiments were performed independently in triplicates and repeated three times.

[2] = system: SARS-CoV-2 wild-type Spike Vpps; experiment: microbe, parasite or virus in culture; conditions: Severe acute respiratory syndrome coronavirus 2, Vero C1008, read-out: EC50 (inhibition of SARS-CoV-2 Vpp infection by 50%)
[3] = biological target: T1, SARS-CoV-2 Mpro (Severe acute respiratory syndrome coronavirus 2, UniProt P0DTD1); format: biochemical
T1 construct: the main protease (M^pro/3CL^pro), a chymotrypsin-like protease

[4] = system: wild-type SARS-CoV-2 Spike Vpps; experiment: microbe, parasite or virus in culture; conditions: Severe acute respiratory syndrome coronavirus 2, NCI-H460, read-out: EC50 (inhibition of SARS-CoV-2 Vpp infection by 50%)
[5] = system: SARS-CoV-2 wild-type Spike Vpps; experiment: microbe, parasite or virus in culture; conditions: Severe acute respiratory syndrome coronavirus 2, VeroE6/TMPRSS2, read-out: EC50 (inhibition of SARS-CoV-2 Vpp infection by 50%)
[6] = Cytotoxicity assay (MTT), NCI-H460; format: cell-based; conditions: human, tested concentrations given in μg/ml, read-out: CC50 (median cytotoxic concentration)
Procedure: as §1, §2

[7] = biological target: SARS-CoV-2 Spike RBD / human ACE2 interaction (UniProt P0DTC2+Q9BYF1); experiment: Spike protein–ACE2 interaction ELISA assay; format: binding, SARS-CoV-2; human; conditions: doses 0, 50, 100 μg/ml (method b11 says μM), Figure 1A
[8] = system: wild-type SARS-CoV-2 Spike Vpps; experiment: microbe, parasite or virus in culture; conditions: Severe acute respiratory syndrome coronavirus 2, 293T/ACE2, read-out: EC50 (inhibition of SARS-CoV-2 Vpp infection by 50%)
[9] = Cytotoxicity assay (MTT), VeroE6; format: cell-based; conditions: African green monkey, tested concentrations given in μg/ml, read-out: CC50 (median cytotoxic concentration)
Procedure: as §1, §2

[10] = biological target: T2, human TMPRSS2 (Homo sapiens, UniProt O15393); experiment: Cell-based TMPRSS2 enzyme activity assay (293T-TMPRSS2 cells, Boc-QAR-AMC)
T2 construct: Flag; host or cells: 293T
T2 sequence (O15393 whole entry): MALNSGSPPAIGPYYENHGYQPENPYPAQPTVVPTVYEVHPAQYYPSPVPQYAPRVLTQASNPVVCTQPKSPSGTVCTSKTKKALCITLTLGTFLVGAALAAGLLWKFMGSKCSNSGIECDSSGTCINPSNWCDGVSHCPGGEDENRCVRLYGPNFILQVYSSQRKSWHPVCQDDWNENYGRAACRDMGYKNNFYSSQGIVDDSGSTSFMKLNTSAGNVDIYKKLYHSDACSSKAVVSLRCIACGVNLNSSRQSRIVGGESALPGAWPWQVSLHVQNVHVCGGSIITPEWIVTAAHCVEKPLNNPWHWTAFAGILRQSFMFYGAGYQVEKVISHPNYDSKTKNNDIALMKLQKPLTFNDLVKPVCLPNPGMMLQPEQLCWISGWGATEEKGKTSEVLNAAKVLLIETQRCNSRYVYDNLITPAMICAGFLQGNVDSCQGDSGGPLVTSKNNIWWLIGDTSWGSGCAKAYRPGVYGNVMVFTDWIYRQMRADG

[11] = system: SARS-CoV-2 wild-type Spike Vpps; design: EC50 (inhibition of SARS-CoV-2 Vpp infection by 50%): unit not given beside the values
[12] = system: Mpro of SARS-CoV-2; conditions: in vitro analysis; ref Zhu and Xie, 2020; cited from earlier work

O=C1O[C@H]2[C@@H]3OC(=O)c4cc(O)c(O)c(O)c4-c4c(O)c(O)c5oc(=O)c6c(c(O)c(O)c7oc(=O)c4c5c76)-c4c(cc(O)c(O)c4O)C(=O)OC[C@H]3OC(O)[C@@H]2OC(=O)c2cc(O)c(O)c(O)c2-c2c1cc(O)c(O)c2O (mixture of isomers) [Punicalagin, punicalagin]
CC50 at 24 h [1]: 606 ± 61.1 µg/mL | EC50 [2]: 5.47 ± 1.27 µg/mL | inhibition of Mpro enzymatic activity [3]: even stronger inhibitory activity on M^pro than tannic acid and OPCs | EC50 [4]: 4.65 ± 0.47 µg/mL | EC50 [5]: 5.8 ± 1.74 µg/mL | CC50 at 24 h [6]: 88.4 ± 6.76 µg/mL | inhibitory activity against the Spike protein–ACE2 interaction [7]: highest inhibitory activity | EC50 [8]: 3.7 ± 2.24 µg/mL | CC50 at 24 h [9]: 84.7 ± 5.55 µg/mL | IC50 [10]: 31.9 µM | inhibitory activity on TMPRSS2 ([10]; Figure 1C, in words): only moderate inhibitory activity | SI (ratio of CC50 to EC50) [11]: 15.49

Oc1cc(O)c2c(c1)O[C@H](c1ccc(O)c(O)c1)[C@H](O)[C@H]2c1c(O)cc(O)c2c1O[C@H](c1ccc(O)c(O)c1)[C@H](O)C2 [PB2, procyanidin B2]
IC50 [12]: 75.3 ± 1.29 µM

tannic acid [reference compound]
EC50 (inhibition of SARS-CoV-2 Vpp infection by 50%) [11]: 6.91±0.63
